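How tested: cells in 96-well plates exposed to compound for 48 hours at five concentrations. Here, GI50 denotes the concentration required for 50% inhibition of growth.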 Calls of active or inactive are those of the source. Rule as the data show it: active = GI50 up to about 1.1 µM and inactive = higher.
How the values were obtained:
Test in all cases: DTP human tumour cell line panel, 48 h
786-0 = test system: 786-0
A498 = test system: A498
BT-549 = test system: BT-549
CAKI-1 = test system: CAKI-1
COLO 205 = test system: COLO 205
EKVX = test system: EKVX
HCC 2998 = test system: HCC 2998
KM12 = test system: KM12
M14 = test system: M14
MDA-MB-435 = test system: MDA-MB-435
MOLT-4 = test system: MOLT-4
NCI-H23 = test system: NCI-H23
OVCAR-3 = test system: OVCAR-3
SF-539 = test system: SF-539
LOX IMVI = test system: LOX IMVI
SK-MEL-5 = test system: SK-MEL-5
SNB-75 = test system: SNB-75
TK-10 = test system: TK-10
NCI-H522 = test system: NCI-H522

Measured: GI50

Cc1cccc(N/C(=C(/C(Cl)=C(Cl)Cl)[N+](=O)[O-])n2nnc3ccccc32)c1
inactive: 786-0 19.5 µM | A498 12.5 µM | BT-549 18.6 µM | CAKI-1 17.5 µM | COLO 205 17.1 µM | EKVX 18.6 µM | HCC 2998 29.2 µM | KM12 14.9 µM | M14 21.9 µM | MDA-MB-435 20.4 µM | MOLT-4 88.3 µM | NCI-H23 16.8 µM | OVCAR-3 15.3 µM | SF-539 15.8 µM

COC(=O)c1nsc(OC)c1Cl
inactive: 786-0 > 100 µM | BT-549 > 100 µM | CAKI-1 > 100 µM | COLO 205 > 100 µM | EKVX > 100 µM | HCC 2998 > 100 µM | KM12 > 100 µM | LOX IMVI > 100 µM | M14 > 100 µM | MDA-MB-435 > 100 µM | MOLT-4 > 100 µM | NCI-H23 > 100 µM | OVCAR-3 > 100 µM | SF-539 > 100 µM | SK-MEL-5 > 100 µM | SNB-75 > 100 µM | TK-10 > 100 µM

NS(=O)(=O)c1ccc(/N=N/c2ncccc2O)cc1
inactive: 786-0 53.1 µM | A498 > 100 µM | BT-549 > 100 µM | CAKI-1 > 100 µM | COLO 205 > 100 µM | EKVX > 100 µM | KM12 60.5 µM | LOX IMVI 77.4 µM | M14 > 100 µM | MDA-MB-435 > 100 µM | MOLT-4 22.6 µM | NCI-H23 51.4 µM | NCI-H522 44.9 µM | OVCAR-3 33.7 µM | SF-539 55.6 µM | SK-MEL-5 > 100 µM | SNB-75 > 100 µM | TK-10 > 100 µM

Cc1nc(O)c(Cc2ccccc2O)c(-c2ccccc2)n1
inactive: 786-0 > 100 µM | A498 > 100 µM | BT-549 > 100 µM | CAKI-1 > 100 µM | COLO 205 > 100 µM | EKVX 19.1 µM | KM12 > 100 µM | LOX IMVI > 100 µM | M14 > 100 µM | MDA-MB-435 > 100 µM | MOLT-4 > 100 µM | NCI-H23 > 100 µM | NCI-H522 > 100 µM | OVCAR-3 > 100 µM | SF-539 > 100 µM | SK-MEL-5 > 100 µM | SNB-75 22.4 µM | TK-10 > 100 µM

CCOC(=O)Nc1cc(NC(/C=N/NC(C)=O)C(=O)OCC)c(OC)cc1NC(C)=O (centres undefined)
inactive: 786-0 > 100 µM | A498 > 100 µM | BT-549 > 100 µM | CAKI-1 > 100 µM | COLO 205 > 100 µM | EKVX > 100 µM | HCC 2998 > 100 µM | KM12 > 100 µM | M14 > 100 µM | MDA-MB-435 > 100 µM | MOLT-4 > 100 µM | NCI-H23 > 100 µM | OVCAR-3 > 100 µM | SK-MEL-5 > 100 µM | SNB-75 > 100 µM | TK-10 > 100 µM

CC1(C)C2CCC1(C)C(N/C(Sc1ccccc1)=C(/C(Cl)=C(Cl)Cl)[N+](=O)[O-])C2 (centres undefined)
inactive: 786-0 14 µM | A498 15 µM | BT-549 12.4 µM | CAKI-1 15.2 µM | EKVX 13.4 µM | HCC 2998 15.2 µM | KM12 4.8 µM | M14 13.2 µM | MDA-MB-435 10.4 µM | MOLT-4 3.22 µM | NCI-H23 12.3 µM | OVCAR-3 4.92 µM | SF-539 13.5 µM | SNB-75 15.6 µM

CCOC(=O)c1c(O)cc(=O)[nH]c1N1CCOCC1
inactive: 786-0 > 100 µM | A498 > 100 µM | BT-549 > 100 µM | CAKI-1 > 100 µM | COLO 205 > 100 µM | EKVX > 100 µM | HCC 2998 > 100 µM | KM12 > 100 µM | LOX IMVI > 100 µM | M14 > 100 µM | MDA-MB-435 > 100 µM | MOLT-4 > 100 µM | NCI-H23 > 100 µM | OVCAR-3 > 100 µM | SF-539 > 100 µM | SK-MEL-5 > 100 µM | SNB-75 > 100 µM

COc1ccc(C2CC(c3ccc4ccccc4c3O)=NN2C(C)=O)cc1OC (centres undefined)
inactive: 786-0 > 100 µM | A498 > 100 µM | BT-549 > 100 µM | CAKI-1 > 100 µM | COLO 205 > 100 µM | HCC 2998 > 100 µM | KM12 > 100 µM | M14 > 100 µM | MDA-MB-435 > 100 µM | MOLT-4 55.1 µM | NCI-H23 > 100 µM | NCI-H522 > 100 µM | OVCAR-3 > 100 µM | SF-539 > 100 µM | SK-MEL-5 > 100 µM | SNB-75 > 100 µM | TK-10 > 100 µM

Cc1ncc([N+](=O)[O-])n1CCNC(=O)Cn1ccnc1[N+](=O)[O-]
inactive: 786-0 > 100 µM | A498 > 100 µM | BT-549 > 100 µM | CAKI-1 > 100 µM | COLO 205 > 100 µM | HCC 2998 > 100 µM | KM12 > 100 µM | M14 > 100 µM | MDA-MB-435 > 100 µM | MOLT-4 > 100 µM | NCI-H23 > 100 µM | NCI-H522 > 100 µM | OVCAR-3 > 100 µM | SF-539 > 100 µM | SK-MEL-5 > 100 µM | SNB-75 > 100 µM | TK-10 > 100 µM

CCC1OC2C(CC=C(C)C)=C3OC(C)(O)C(C)(CC)C(=O)C3=C3OC(=O)C=C1C32 (centres undefined)
inactive: 786-0 25.4 µM | A498 23.6 µM | BT-549 15.1 µM | CAKI-1 54.2 µM | COLO 205 20.5 µM | EKVX 29.4 µM | HCC 2998 34.8 µM | KM12 34.4 µM | LOX IMVI 12.3 µM | M14 27.7 µM | MDA-MB-435 31.4 µM | MOLT-4 20.2 µM | NCI-H23 28.4 µM | SF-539 8.55 µM | SK-MEL-5 16.5 µM | TK-10 46.5 µM

Cc1cc(C)c2c(=O)n(CN3CCC(C#N)(c4ccccc4)CC3)sc2n1
inactive: 786-0 22.7 µM | A498 > 100 µM | BT-549 91.2 µM | CAKI-1 39.3 µM | COLO 205 30.8 µM | EKVX 52.7 µM | KM12 > 100 µM | LOX IMVI 26.2 µM | M14 50.2 µM | MDA-MB-435 24.4 µM | MOLT-4 49.4 µM | NCI-H23 34.4 µM | NCI-H522 14.3 µM | OVCAR-3 83 µM | SF-539 31.3 µM | SK-MEL-5 72.1 µM | SNB-75 37.7 µM | TK-10 25.6 µM

Cc1ccc(S(=O)(=O)N2CCCSCCSCCCSCC2)cc1
inactive: 786-0 > 100 µM | BT-549 > 100 µM | COLO 205 > 100 µM | EKVX > 100 µM | HCC 2998 > 100 µM | KM12 > 100 µM | LOX IMVI > 100 µM | M14 > 100 µM | MDA-MB-435 > 100 µM | MOLT-4 > 100 µM | NCI-H23 > 100 µM | NCI-H522 > 100 µM | OVCAR-3 > 100 µM | SF-539 > 100 µM | SK-MEL-5 > 100 µM | SNB-75 86.7 µM | TK-10 > 100 µM

Source: ChEMBL document CHEMBL1201862, “PubChem BioAssay data set” (2004)
